The subject of the assay is SARS-CoV-2 (wuhan-HU-1 variant). In kind it is cell-based.

Turning to `C=C(C)[C@@H]1CC[C@]2(C(=O)O)CC[C@]3(C)[C@H](CC[C@@H]4[C@@]5(C)CC[C@H](O)C(C)(C)[C@@H]5CC[C@]43C)[C@@H]12` [BA, Betulinic acid], the “anti-SARS-CoV-2 activity” value was “virtually inactive”.
